Measured values reported in patent US20050288377A1, “Use of calcimimetic as an adynamic bone disease related treatment” (priority 2004, published 2005).
Several values for one entry are separate records, joined by “and”; a condition that tells them apart may be missing. Equal entries are not always repeated. Structures can show the parent of a compound that is named as a salt. Where two headings read alike, the source gives them in different places.

Experiments:
[1] = system: parathyroid cancer patients; experiment: PTH levels and ratio in parathyroid cancer patients receiving Cinacalcet HCl (Table 2); assay type: in vivo, human; details: SCR or D1 visit: prior to Cinacalcet HCl treatment (baseline); hydrochloride
From the text: See M. R. Rubin, et al., “A Molecular Form of PTH Distinct From PTH (1-84) is Produced in Parathyroid Carcinoma” (J. Bone & Mineral Metab., forthcoming).

ESRD subjects = experiment: Study of ESRD subjects treated with Cinacalcet and HECTOROL (Table 3); assay type: in vivo, human; details: unlabelled summary line over patients 1-11
From the text: Table 3 provides the results of a study of several ESRD subjects treated with Cinacalcet and HECTOROL™ (Doxercalciferol synthetic Vitamin D). Pre and post treatment levels of total PTH, 1-84 PTH, 7-84 PTH, calcium, phosphate and alkaline phosphatase are provided together with the pre and post treatment ratio of 1-84 PTH/7-84 PTH and the pre and post treatment product of (calcium) x (phosphate).

[2] = system: chronic kidney disease patients on dialysis; details: product insert; cited from earlier work
1-84 PTH/7-84 PTH ratio = details: cited from earlier work

With `C[C@@H](NCCCc1cccc(C(F)(F)F)c1)c1cccc2ccccc12` [Cinacalcet HCl] as the molecule, how does the CPTH/TPTH [1] read?
Its CPTH/TPTH is 1.5 and 1.6.

And the “Post CIP (7-84 PTH)” value (ESRD subjects; post treatment)?
The value was 342.2.

What about the “Post Ca” value (ESRD subjects; post treatment) of the same molecule?
Its value is 8.7.

And the “Post Phos” value (ESRD subjects; post treatment)?
The value was 5.6.

And the Post alk phos (ESRD subjects; post treatment)?
Its Post alk phos is 240.5.

What about the “Post-CAP (1-84 PTH)” value (ESRD subjects; post treatment) of the same molecule?
Its value is 458.3.

What about the “Post-Total (total PTH)” value (ESRD subjects; post treatment) of the same molecule?
Its value is 800.4.

And the “Prot Ca xP” value (ESRD subjects; post treatment)?
Its value is 49.2.

And the “Pre Ca” value (ESRD subjects; pre treatment)?
Its value is 9.5.

What about the “Pre Ca xP” value (ESRD subjects; pre treatment) of the same molecule?
Its value is 55.7.

And the “Pre Phos” value (ESRD subjects; pre treatment)?
The value was 5.9.

And the Pre alk phos (ESRD subjects; pre treatment)?
Its Pre alk phos is 220.2.

And the “Pre-CAP (1-84 PTH)” value (ESRD subjects; pre treatment)?
The value was 508.8.

And the “Pre-CIP (7-84 PTH)” value (ESRD subjects; pre treatment)?
Its value is 355.3.

And the “Pre-Total (total PTH)” value (ESRD subjects; pre treatment)?
The value was 864.0.

What about the “risk for developing adynamic bone disease” value [2] of the same molecule?
The value was “carries a risk for developing adynamic bone disease”.

Which Ca (1-84 PTH/7-84 PTH ratio; 2.5 μgm/dose, Nov. 1 2001 (Ca Nov. 8)) does the source give for `C=C1/C(=C\C=C2/CCC[C@]3(C)[C@@H]([C@H](C)/C=C/[C@H](C)C(C)C)CC[C@@H]23)C[C@@H](O)C[C@@H]1O` [Hectarale, Doxercalciferol] here?
The Ca was 8.1 mg/dL.

And the PO4 (1-84 PTH/7-84 PTH ratio; 2.5 μgm/dose, Nov. 1 2001 (PO4 Nov.5-7))?
The PO4 was 5.7 mg/dL.

What about the CAP (1-84 PTH/7-84 PTH ratio; 2.5 μgm/dose, Nov. 1 2001) of the same molecule?
Its CAP is 1462 pgm/mL.

What about the CAP/CIP (1-84 PTH/7-84 PTH ratio; 2.5 μgm/dose, Nov. 1 2001) of the same molecule?
Its CAP/CIP is 6.74.

And the CIP (1-84 PTH/7-84 PTH ratio; 2.5 μgm/dose, Nov. 1 2001)?
Its CIP is 217 pgm/mL.

And the “Ca × PO4” value (1-84 PTH/7-84 PTH ratio; 2.5 μgm/dose, Nov. 1 2001)?
Its value is 46.

And the “Intact PTH” value (1-84 PTH/7-84 PTH ratio; 2.5 μgm/dose, Nov. 1 2001)?
Its value is 1679 pgm/mL.

And the Ca (1-84 PTH/7-84 PTH ratio; 4 μgm/dose, Aug. 17 2001 (Ca Sept. 21))?
Its Ca is 8.3 mg/dL.

What about the PO4 (1-84 PTH/7-84 PTH ratio; 4 μgm/dose, Aug. 17 2001 (PO4 Sept. 21)) of the same molecule?
The PO4 was 7.0 mg/dL.

And the CAP (1-84 PTH/7-84 PTH ratio; 4 μgm/dose, Aug. 17 2001)?
The CAP was 1735 pgm/mL.

And the CAP/CIP (1-84 PTH/7-84 PTH ratio; 4 μgm/dose, Aug. 17 2001)?
The CAP/CIP was 0.95.

What about the CIP (1-84 PTH/7-84 PTH ratio; 4 μgm/dose, Aug. 17 2001) of the same molecule?
The CIP was 1824 pgm/mL.

And the “Ca × PO4” value (1-84 PTH/7-84 PTH ratio; 4 μgm/dose, Aug. 17 2001)?
The value was 58.

And the “Intact PTH” value (1-84 PTH/7-84 PTH ratio; 4 μgm/dose, Aug. 17 2001)?
The value was 3559 pgm/mL.
